Drawing on ChEMBL document CHEMBL3046901, “3D-pharmacophore model based virtual screening to identify dual-binding site and selective acetylcholinesterase inhibitors” (Med Chem Res, 2011), this text covers IC50 for three molecules.

Usually IC50 stands for the concentration needed to halve the response being measured. The low end stands for greater potency in that assay, the high end for weaker potency in that assay.

In this experiment the target is Acetylcholinesterase (Homo sapiens, UniProt P22303). The experiment in a line: Inhibition of acetylcholinesterase (unknown origin).
Acetylcholinesterase, sequence (P22303 whole entry): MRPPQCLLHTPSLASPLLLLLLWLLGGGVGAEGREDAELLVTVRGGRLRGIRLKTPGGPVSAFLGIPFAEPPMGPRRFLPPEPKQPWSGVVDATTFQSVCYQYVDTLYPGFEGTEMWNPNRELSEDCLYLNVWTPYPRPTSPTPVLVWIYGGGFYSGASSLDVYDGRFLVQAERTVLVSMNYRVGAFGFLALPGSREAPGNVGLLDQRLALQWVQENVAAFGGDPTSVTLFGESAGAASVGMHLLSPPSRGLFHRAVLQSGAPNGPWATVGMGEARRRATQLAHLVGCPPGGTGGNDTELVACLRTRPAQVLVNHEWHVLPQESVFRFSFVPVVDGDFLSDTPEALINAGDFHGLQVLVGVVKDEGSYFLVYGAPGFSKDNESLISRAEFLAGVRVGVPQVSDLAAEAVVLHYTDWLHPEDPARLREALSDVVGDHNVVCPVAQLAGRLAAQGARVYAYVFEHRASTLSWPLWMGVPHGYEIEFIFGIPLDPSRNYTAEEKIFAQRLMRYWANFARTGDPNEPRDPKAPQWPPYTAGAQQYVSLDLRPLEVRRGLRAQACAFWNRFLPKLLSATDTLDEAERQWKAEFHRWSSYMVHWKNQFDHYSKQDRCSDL

Take `CNCOc1cccc(CN(C)CCCCCCCOc2ccc3c(=O)c4ccccc4oc3c2)c1`: the IC50 amounted to 0.32 nM.
The result for `CCN(CCCCCOc1ccc2c(=O)c3ccccc3oc2c1)Cc1cccc(OC(=O)NC)c1` reads 0.82 nM; that for `CN(CCCCCOc1ccc2c(=O)c3ccccc3oc2c1)Cc1ccccc1`, 6250 nM.
